# Reference: paper PMC9631887 (ACS Omega, 2022)
# Key:
# [1] = PAMPA-BBB
# [2] = QC standards; ref Zhu et al.[29]; cited from earlier work
# [3] = PAMPA-GIT; conditions: for classification / experimental fraction absorption: PAMPA-GIT; for classification: fraction absorption classification; for Papp at 8 h, 500 μM: PAMPA
Structure (SMILES),classification [3],experimental fraction absorption [3],"Papp at 8 h, 500 μM [3]",classification [1],literature fraction absorption [2]
Cn1c(=O)c2c(ncn2C)n(C)c1=O [caffeine],–,–,–,BBB– (Pe values <1.57 were classified as nonpermeable (BBB−)),–
CO/N=C(\C(=O)N[C@@H]1C(=O)N2C(C(=O)O)=C(CSc3nc(=O)c(=O)[nH]n3C)CS[C@H]12)c1csc(N)n1 [ceftriaxone],–,–,–,–,1%
CCn1cc(C(=O)O)c(=O)c2cc(F)c(N3CCNCC3)cc21 [norfloxacin],"intermediate (Intermediate, 30–69% Fa)",51.39%,–,–,–
O=c1ccc2ccccc2o1 [coumarin],"high (High, 70–100% Fa)",100.00%,27.9 ×10⁻⁶ cm/s,–,–
O=C(O)Cc1ccccc1Nc1c(Cl)cccc1Cl [diclofenac],"high (High, 70–100% Fa)",100.00%,14 ×10⁻⁶ cm/s,–,100%
CCn1cc(C(=O)O)c(=O)c2cc(F)c(N3CCNCC3)nc21 [enoxacin],–,–,–,BBB– (Pe values <1.57 were classified as nonpermeable (BBB−)),–

# The next lines start with results.
classification [3],experimental fraction absorption [3],"Papp at 8 h, 500 μM [3]",Structure (SMILES),classification [1],literature fraction absorption [2]
"low (Low, 0–29% Fa)",–,–,CC(C)NCC(O)COc1ccc(CC(N)=O)cc1 (stereo not shown) [atenolol],–,–
–,100.00%,–,C[C@]12CCC(=O)C=C1CC[C@@H]1[C@@H]2[C@@H](O)C[C@@]2(C)[C@H]1CC[C@]2(O)C(=O)CO [hydrocortisone],–,–
"intermediate (Intermediate, 30–69% Fa)",49.75%,–,CNC(=C[N+](=O)[O-])NCCSCc1ccc(CN(C)C)o1 [ranitidine],–,–
